According to article PMC10383195, “Interactions of the Kv1.1 Channel with Peptide Pore Blockers: A Fluorescent Analysis on Mammalian Cells” (Membranes, 2023):
Numbered stars: 1 amine (or outer) side, 2 acyl side, 3 side chain; on linkers, the order of the positions; unused ones are H or OH. Bridge positions count the residues as written; N and C are the ends. Square brackets hold non-standard residues; d marks the D form. Peptide text beside a SMILES is read from it. * marks the point of attachment. X1 = N=c1ccc2c(-c3ccccc3C(=O)*)c3ccc(N)c(S(=O)(=O)O)c3oc-2c1S(=O)(=O)O; NMeGABA = CN(CCCC(=O)[*:2])[*:1]

What was measured:
[1] = biological target: T1, K-Kv1.1 channel (hKv1.1S369T with mKate2) (Homo sapiens, UniProt Q09470, S369T); assay: Whole-cell patch-clamp of currents through K-Kv1.1 in Neuro2a cells; format: cell-based
T1 construct: these fragments were combined and amplified using terminal primers to obtain the whole mutated gene; expressed in transfected cells; host or cells: mouse neuroblastoma Neuro2a cells, transient transfection with pmKate2-KCNA1m1
Procedure: Membrane ion currents through the K-Kv1.1 channel were recorded at room temperature by the patch-clamp technique using the standard whole-cell configuration as described earlier.
Briefly, Neuro2a cells attached to coverslips (10 mm in diameter) pre-coated with poly-D-lysine were immersed in a buffer (140 mM NaCl, 2.8 mM KCl, 2 mM MgCl2, 2 mM CaCl2, 10 mM glucose, 10 mM HEPES, pH 7.4) and perfused continuously. Micropipettes with a tip resistance of 6–8 MΩ were filled with a pipette solution containing 140 mM KCl, 6 mM CaCl2, 2 mM MgCl2, 2 mM MgATP, 0.4 mM NaGTP, 10 mM HEPES, 20 mM BAPTA/KOH (pH 7.3). The patches were routinely held at a holding potential of −40 mV. The potential was changed from −70 to +70 mV (20 mV step) using 200 ms pulses, which were applied incrementally with an interval of 20 s. Finally, the potential returned to the holding potential.
Cells were measured 24–48 h after transfection. The cells were selected by K-Kv1.1 fluorescence. The cells were analyzed if their input resistance was more than 350 MΩ. The currents were recorded using an EPC-10 amplifier (HEKA Elektronik, Stuttgart, Germany).
[…] The toxins were dissolved in a complete medium.
The measured concentration dependence of current inhibition through the K-Kv1.1 channel by A-HgTx was analyzed with the following equation:Irel(L) = 100/(1 + (IC50/L)^h) (1) where Irel is a decrease in current (%), L is the concentration of A-HgTx, IC50 is the concentration of A-HgTx that induces a 50% decrease in current, and h is the Hill coefficient.

Kv1.3 channel [2] = conditions: read-out: Kd of A-HgTx with Kv1.3 channel; cited from earlier work
[3] = biological target: T2, mKate2-tagged human Kv1.1 (S369T) channel (K-Kv1.1) (Homo sapiens, UniProt Q09470, S369T); assay: Competitive binding of peptide pore blocker and A-HgTx to K-Kv1.1 on the plasma membrane of Neuro2a cells (confocal microscopy); conditions: A-HgTx (2 nM) displacement compared in complete medium, Na+ and K+ buffers
T2 construct: these fragments were combined and amplified using terminal primers to obtain the whole mutated gene; expressed in transfected cells; host or cells: mouse neuroblastoma Neuro2a cells, transient transfection with pmKate2-KCNA1m1
Procedure: To analyze the binding of A-HgTx, A-HgTx (0.25–4 nM) was added to cells in a complete medium for 60 min. To analyze competitive binding, A-HgTx (2 nM), together with the selected peptide (0.05–160 nM), was added to cells in a complete medium for 60 min.
To compare ligand binding with closed and open channels, ligands were added to cells (60 min, 37 °C) in a buffer (20 mM HEPES pH 7.4, 0.9 mM CaCl2, 0.5 mM MgCl2, 0.1% BSA) supplemented with 4 mM KCl and 150 mM NaCl (Na^+ buffer) or with 150 mM KCl (K^+ buffer).
The fluorescence of the K-Kv1.1 and K-Kv1.1wt channels was excited at 561 nm and detected in the 650–700 nm region. A-HgTx fluorescence was excited at 488 nm and detected in the 495–535 nm region. Sequential scanning was used to measure the cellular distributions of A-HgTx and mKate2 fluorescence in order to avoid interference of mKate2 fluorescence with cellular autofluorescence excited at 488 nm.
Quantitative analysis of the interaction of A-HgTx with K-Kv1.1 was carried out in accordance with the procedure developed previously for A-HgTx and the fluorescently labeled Kv1.3 channel. Briefly, the regions of interest with K-Kv1.1 on the plasma membrane were selected in the confocal images and used to create binary (0;1) masks that described the membranous distribution of K-Kv1.1. The confocal images of K-Kv1.1 and A-HgTx were multiplied by the corresponding mask, and the average fluorescence intensities of A-HgTx (Ili) and K-Kv1.1 (Ici) corrected for the background signal were calculated for each i-cell. Ratio Ri = Ili/Ici was calculated and averaged over 15–20 cells to obtain the Rav value and the standard deviation.
To analyze the competitive binding of the studied peptide pore blocker and A-HgTx to K-Kv1.1 on the cellular membrane, Rav data were plotted depending on the blocker concentration (C) at the constant A-HgTx concentration (L) and fitted with the following equation:Rav(C) = Rav0/(1 + C/DC50)(3) where DC50 is the blocker concentration displacing 50% of A-HgTx from the complex with K-Kv1.1, and Rav0 is Rav at C = 0.
The apparent dissociation constant (Kap) of the complex between the studied blocker and the K-Kv1.1 channel was calculated using the Cheng–Prusoff equation:Kap = DC50/(1 + L/Kd).(4)
Two independent experiments were performed, and the Kav data were averaged and presented as mean ± SEM. Fifteen to twenty-five treated cell images were the average value for each point on the curves of A-HgTx binding to the K-Kv1.1 channel.

Kv1.3 channel [4] = conditions: cited from earlier work
Procedure: Exploring the potential of this analytical system, we have measured the Kap of the complex between the recombinant peptide Ce1 and the Kv1.1 channel (Figure 8c, Table 2) and classified Ce1 as a moderately active ligand of this channel. Toxin Ce1 was found in the venom of the scorpion Centruroides elegans and characterized as a high-affinity pore blocker of the Kv1.3 channel (IC50 = 0.7 nM). Its activity for the Kv1.1 channel was not previously reported.

Kv1.1 channel = conditions: concentrations up to 25 nM; cited from earlier work
Excerpt: Ce1 is a member of the α-KTx2 subfamily of scorpion toxins and is a close homolog of the well-studied toxins HgTx1, MgTx, and noxiustoxin (NTx, Table 3). […] Thus, Ce1 surpasses the closest homolog NTx in affinity for Kv1.1, but inferiors MgTx and especially HgTx in this characteristic (Table 2).

T1 sequence (Q09470 whole entry S369T, the tested form may be a part): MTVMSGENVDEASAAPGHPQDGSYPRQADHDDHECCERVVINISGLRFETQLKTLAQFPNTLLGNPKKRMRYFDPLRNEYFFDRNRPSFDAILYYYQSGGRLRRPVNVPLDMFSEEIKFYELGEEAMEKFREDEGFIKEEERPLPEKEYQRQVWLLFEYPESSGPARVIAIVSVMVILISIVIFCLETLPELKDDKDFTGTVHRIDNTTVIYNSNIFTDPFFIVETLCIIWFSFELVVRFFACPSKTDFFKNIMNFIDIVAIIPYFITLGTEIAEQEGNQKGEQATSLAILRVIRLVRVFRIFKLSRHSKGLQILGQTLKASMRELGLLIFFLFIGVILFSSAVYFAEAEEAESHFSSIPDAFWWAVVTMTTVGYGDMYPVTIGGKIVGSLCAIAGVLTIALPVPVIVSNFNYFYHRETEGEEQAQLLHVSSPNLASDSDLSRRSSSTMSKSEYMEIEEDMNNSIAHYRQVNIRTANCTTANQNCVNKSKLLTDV
T2 sequence (Q09470 whole entry S369T, the tested form may be a part): as above

Q: Which “decrease in the amplitude of the current through K-Kv1.1” value ([1]; 5 nM A-HgTx, applied voltage from −30 to 70 mV) does the source give for CC[C@H](C)[C@@H]1NC(=O)CNC(=O)[C@H](Cc2ccccc2)NC(=O)[C@H](CCC(N)=O)NC(=O)[C@H](C)NC(=O)[C@H](CCCCN)NC(=O)[C@@H]2CSSC[C@@H](C(=O)N[C@@H](Cc3ccc(O)cc3)C(=O)N3CCC[C@H]3C(=O)N[C@@H](Cc3c[nH]cn3)C(=O)O)NC(=O)[C@H](CCCCN)NC(=O)[C@@H]3CSSC[C@H](NC(=O)[C@H](CCC(N)=O)NC(=O)[C@H](CCCCN)NC(=O)[C@@H]4CCCN4C(=O)[C@H](CO)NC(=O)[C@H]([C@@H](C)O)NC(=O)[C@@H](NC(=O)[C@H](CCCCN)NC(=O)[C@@H](NC(=O)[C@H](CC(=O)O)NC(=O)[C@@H](NC(=O)[C@@H](NC(=O)[C@@H](NC(=O)CCCN(C)C(=O)c4ccccc4-c4c5ccc(=N)c(S(=O)(=O)O)c-5oc5c(S(=O)(=O)O)c(N)ccc45)[C@@H](C)O)C(C)C)[C@@H](C)CC)C(C)C)CSSC[C@H](NC(=O)[C@H](CCCCN)NC(=O)[C@H](C)NC(=O)CNC(=O)[C@H](C)NC(=O)[C@H](CCCNC(=N)N)NC1=O)C(=O)N[C@@H](CCSC)C(=O)N[C@@H](CC(N)=O)C(=O)NCC(=O)N[C@@H](CCCCN)C(=O)N3)C(=O)N[C@@H](CC(C)C)C(=O)N1CCC[C@H]1C(=O)N1CCC[C@H]1C(=O)N2 [A-HgTx] (X1-[NMeGABA]TVIDVKCTSPKQCLPPCKAQFGIRAGAKCMNGKCKCYPH-OH; disulfide 8-30, 14-35, 18-37; C-terminus assumed) here?
A: The value was roughly 50%.

Q: And the IC50 ([1]; +50 mV voltage, mean ± SEM (n = 6), SEM, read-out: IC50 (concentration of A-HgTx inhibiting current by 50%))?
A: The IC50 was 4800 ± 200 pM.

Q: And the maximum current inhibition ([1]; +50 mV, A-HgTx above 15 nM)?
A: The maximum current inhibition was “ca. 75%”.

Q: And the Kd (Kv1.3 channel [2])?
A: Its Kd is 300 ± 130 pM.

Q: With CC[C@H](C)[C@H](NC(=O)[C@@H](NC(=O)[C@@H](N)[C@@H](C)O)C(C)C)C(=O)N[C@@H](CC(N)=O)C(=O)N[C@H](C(=O)N[C@@H](CCCCN)C(=O)N[C@H]1CSSC[C@@H]2NC(=O)[C@H](CCCCN)NC(=O)[C@H](C)NC(=O)CNC(=O)[C@H](C)NC(=O)[C@H](Cc3c[nH]cn3)NC(=O)[C@@H]3CCCN3C(=O)CNC(=O)[C@H](Cc3ccc(O)cc3)NC(=O)[C@H](CC(C)C)NC(=O)[C@H](CC(=O)O)NC(=O)[C@H](CCCCN)NC(=O)[C@@H]3CSSC[C@@H](C(=O)N[C@@H](Cc4ccc(O)cc4)C(=O)N[C@@H](CC(N)=O)C(=O)N[C@@H](CC(N)=O)C(=O)O)NC(=O)[C@H](CCCCN)NC(=O)[C@H](CSSC[C@H](NC(=O)[C@H](CCC(N)=O)NC(=O)[C@H](CCCCN)NC(=O)[C@@H]4CCCN4C(=O)[C@H](CO)NC(=O)[C@H]([C@@H](C)O)NC1=O)C(=O)N[C@@H](CC(C)C)C(=O)N[C@@H](CCCCN)C(=O)N1CCC[C@H]1C(=O)N3)NC(=O)[C@H](CCCCN)NC(=O)CNC(=O)[C@H](CC(N)=O)NC(=O)[C@H](CCSC)NC2=O)C(C)C [Ce1] (H-TVINVKCTSPKQCLKPCKDLYGPHAGAKCMNGKCKCYNN-OH; disulfide 7-29, 13-34, 17-36 (inferred); N-terminus and C-terminus assumed) as the compound, how does the “effect of channel state (closed or open) on affinity of K-Kv1.1 for the peptide” value [3] read?
A: The value was “does not affect the affinity”.

Q: What about the IC50 (Kv1.3 channel [4]) of the same compound?
A: Its IC50 is 700 pM.

Q: For noxiustoxin [NTx], which “block of the Kv1.1 channel” value (Kv1.1 channel) is on record?
A: The value was “does not block”.
